Test results reported in BindingDB's records for doi:10.1124/mol.58.6.1511 (Albert Einstein College of Medicine, 2000).

Key:
[1] = target: Solute carrier organic anion transporter family member 2A1 (Homo sapiens, UniProt Q92959)
[2] = target: Prostaglandin F2-alpha receptor (Human, UniProt P43088)
Sequence of Prostaglandin F2-alpha receptor (P43088 whole entry): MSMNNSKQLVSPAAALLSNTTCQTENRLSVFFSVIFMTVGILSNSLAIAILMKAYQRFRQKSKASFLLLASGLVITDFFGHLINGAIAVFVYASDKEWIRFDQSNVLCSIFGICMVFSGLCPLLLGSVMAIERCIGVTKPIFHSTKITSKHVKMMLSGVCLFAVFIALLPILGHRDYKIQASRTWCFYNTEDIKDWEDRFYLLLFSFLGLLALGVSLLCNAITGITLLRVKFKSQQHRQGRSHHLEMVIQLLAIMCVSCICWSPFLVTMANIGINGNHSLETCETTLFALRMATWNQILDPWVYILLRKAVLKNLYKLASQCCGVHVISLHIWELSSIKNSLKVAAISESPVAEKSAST

Row | SMILES | Ki [1] [µM] | Ki [2] [µM]
1 | CCCCC[C@H](O)/C=C/C1[C@H](O)C[C@H](O)[C@@H]1C/C=C\CCCC(=O)O (stereo partly drawn) [(Z)-7-[(1R,3R,5S)-3,5-Dihydroxy-2-((E)-(S)-3-hydroxy-oct-1-enyl)-cyclopentyl]-hept-5-enoic acid] | 0.045 | 
2 | CCCCC[C@@H](O)/C=C/[C@@H]1[C@@H](C/C=C/CCCC(N)=O)[C@@H](O)C[C@H]1O [AGN 190911] | 7.3 | > 10
3 | CCCCC[C@@H](O)/C=C/[C@@H]1[C@@H](C/C=C/CCCCN)[C@@H](O)C[C@H]1O [AGN 191088] | > 10 | > 10
4 | CCCCC[C@@H](O)/C=C/[C@@H]1[C@@H](C/C=C/CCCC(=O)NS(C)(=O)=O)[C@@H](O)C[C@H]1O [AGN 191365] | 0.307 | > 10
5 | CCCCC[C@@H](O)/C=C/[C@@H]1[C@@H](C/C=C/CCCc2nnn[nH]2)[C@@H](O)C[C@H]1O [AGN 191366] | 0.071 | 8.13
6 | CCCCC[C@H](/C=C/[C@@H]1[C@@H](C/C=C/CCCC(=O)O)[C@@H](O)C[C@H]1O)OC [AGN 191995] | > 10 | 0.228
7 | CCCCC[C@H](/C=C/[C@@H]1[C@@H](C/C=C/CCCC(N)=O)[C@@H](O)C[C@H]1O)OC [AGN 192151] | > 10 | > 10
8 | CCCCC[C@@H](O)/C=C/[C@@H]1[C@@H](C/C=C/CCCS(=O)(=O)NC(C)=O)[C@@H](O)C[C@H]1O [AGN 194394] | 0.034 | > 10
9 | CC(C)OC(=O)CCC/C=C\C[C@@H]1[C@@H](/C=C/[C@@H](O)CCc2ccccc2)[C@H](O)C[C@@H]1O [CAS_130209-76-6] | 0.168 | 0.018
10 | CCCCCC(O)C=CC1C(O)CC(O)C1CC=CCCCC(=O)OC(C)C (stereo not drawn) [PGF2 Alpha, 1-isopropyl ester] | 5 | 3.2
